For 17 molecules, DC50 and Emax results are on record in patent US12486253B2, “Therapeutics for the degradation of mutant BRAF” (C4 THERAPEUTICS, INC., priority 2021, dated 2025).

Molecules are shown by their SMILES. Structures can show the parent of a compound that is named as a salt.

The test addresses BRAF V600E (Homo sapiens, UniProt P15056, V600E). As to the kind of experiment: HiBiT cellular BRAF^V600E degradation assay. The format is cell-based. The following applies: A375.10 cells, 24 h; for DC50: concentration at which 50% of total cellular BRAF^V600E is degraded; for Emax: residual protein remaining in the cell, read-out: HiBit 24 h Emax. (In general: HiBiT is a short tag that completes a luciferase, so light tracks the accessible tagged protein.)

Sequence of BRAF V600E (P15056 whole entry V600E): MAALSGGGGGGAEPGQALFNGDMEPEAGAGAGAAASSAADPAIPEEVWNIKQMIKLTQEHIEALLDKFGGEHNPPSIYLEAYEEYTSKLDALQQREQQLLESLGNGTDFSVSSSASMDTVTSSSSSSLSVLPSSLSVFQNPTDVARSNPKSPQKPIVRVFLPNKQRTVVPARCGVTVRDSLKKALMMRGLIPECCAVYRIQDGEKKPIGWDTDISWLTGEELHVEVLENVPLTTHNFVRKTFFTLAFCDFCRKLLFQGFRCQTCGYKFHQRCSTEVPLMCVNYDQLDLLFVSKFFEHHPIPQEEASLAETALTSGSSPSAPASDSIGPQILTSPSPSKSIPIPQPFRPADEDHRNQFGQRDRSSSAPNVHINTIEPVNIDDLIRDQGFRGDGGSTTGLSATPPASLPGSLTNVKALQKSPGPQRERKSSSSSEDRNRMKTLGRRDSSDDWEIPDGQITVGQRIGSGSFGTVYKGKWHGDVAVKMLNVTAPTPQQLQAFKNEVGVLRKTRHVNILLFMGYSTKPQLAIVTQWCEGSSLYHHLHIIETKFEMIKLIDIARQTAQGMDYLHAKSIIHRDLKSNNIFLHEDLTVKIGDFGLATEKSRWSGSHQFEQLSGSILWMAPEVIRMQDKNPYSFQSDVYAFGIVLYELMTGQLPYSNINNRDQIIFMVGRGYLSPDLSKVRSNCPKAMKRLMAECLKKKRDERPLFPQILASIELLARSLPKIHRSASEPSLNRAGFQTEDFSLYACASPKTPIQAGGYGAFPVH

The term DC50 denotes the midpoint of the concentration-degradation curve. Low values mean degradation at low concentration, high ones degradation only at high concentration. In general, Emax refers to the size of the effect at its maximum, as opposed to the concentration needed. As for `O=C1CC[C@H](Nc2ccc(C3CCN(CC(=O)N4CCN(c5ncc(-n6cnc7ccc(Oc8c(F)ccc(NS(=O)(=O)C9CCCC9)c8F)cc7c6=O)cn5)CC4)CC3)c(F)c2)C(=O)N1` [Example 138, N-[3-[3-[2-[4-[2-[4-[4-[[(3S)-2,6-dioxopiperidin-3-yl]amino]-2-fluorophenyl]piperidin-1-yl]acetyl]piperazin-1-yl]pyrimidin-5-yl]-4-oxoquinazolin-6-yl]oxy-2,4-difluorophenyl]cyclopentanesulfonamide], the DC50 stood at 17.2 nM and the Emax turned out to be 10.7%.
On the same counts, the results for `CCN(C)S(=O)(=O)Nc1ccc(F)c(Oc2ccc3ncn(C4COC5(CCN(C(=O)CN6CCC(c7ccc(NC8CCC(=O)NC8=O)cc7F)CC6)CC5)C4)c(=O)c3c2N)c1C#N` (stereo not shown) [Example 81, 3-[5-amino-6-[2-cyano-3-[[ethyl(methyl)sulfamoyl]amino]-6-fluorophenoxy]-4-oxoquinazolin-3-yl]-8-[2-[4-[4-[(2,6-dioxopiperidin-3-yl)amino]-2-fluorophenyl]piperidin-1-yl]acetyl]-1-oxa-8-azaspiro[4.5]decane] are 25.4 nM and 12.2%.
In the case of `CCN(C)S(=O)(=O)Nc1ccc(F)c(Oc2ccc3ncn([C@@H]4COC5(CCN(C(=O)CN6CCC(c7ccc(NC8CCC(=O)NC8=O)cc7F)CC6)CC5)C4)c(=O)c3c2)c1C#N` (single isomer, unassigned) [Example 33], the DC50 stood at 32.6 nM and the Emax amounted to 8.77%.
Taken in the same sequence, the figures for `Cn1nc(N2CCC(=O)NC2=O)c2cc(F)c(N3CCC(O)(CC(=O)N4CCC5(CC4)C[C@@H](n4cnc6ccc(Oc7c(F)ccc(NS(=O)(=O)N8CCC8)c7C#N)cc6c4=O)CO5)CC3)cc21` [Example 196, N-[2-cyano-3-[3-[(3R)-8-[2-[1-[3-(2,4-dioxo-1,3-diazinan-1-yl)-5-fluoro-1-methylindazol-6-yl]-4-hydroxypiperidin-4-yl]acetyl]-1-oxa-8-azaspiro[4.5]decan-3-yl]-4-oxoquinazolin-6-yl]oxy-4-fluorophenyl]azetidine-1-sulfonamide] were 9990 nM and 89.4%.
On the same counts, the results for `CCN(C)S(=O)(=O)Nc1ccc(F)c(Oc2ccc3ncn(-c4cnc(N5CCN(C(=O)CC6(O)CCN(c7cc8c(cc7F)c(N7CCC(=O)NC7=O)nn8C)CC6)CC5)nc4)c(=O)c3c2)c1C#N` [Example 199, 6-[2-cyano-3-[[ethyl(methyl)sulfamoyl]amino]-6-fluorophenoxy]-3-[2-[4-[2-[1-[3-(2,4-dioxo-1,3-diazinan-1-yl)-5-fluoro-1-methylindazol-6-yl]-4-hydroxypiperidin-4-yl]acetyl]piperazin-1-yl]pyrimidin-5-yl]-4-oxoquinazoline] are 21.7 nM and 27.9%.
On the same counts, the results for `CCN(C)S(=O)(=O)Nc1ccc(F)c(Oc2ccc3ncn([C@H]4[C@@H]5CN(c6ccc(C(=O)NC7CCN(c8ccc(NC9CCC(=O)NC9=O)cc8F)CC7)cc6)C[C@@H]54)c(=O)c3c2)c1C#N` (stereo partly shown) [Example 35, 4-[6-[6-[2-cyano-3-[[ethyl(methyl)sulfamoyl]amino]-6-fluorophenoxy]-4-oxoquinazolin-3-yl]-3-azabicyclo[3.1.0]hexan-3-yl]-N-[1-[4-[(2,6-dioxopiperidin-3-yl)amino]-2-fluorophenyl]piperidin-4-yl]benzamide] are 6.82 nM and 13.6%.
Take `COC1CN(S(=O)(=O)Nc2ccc(F)c(Oc3ccc4ncn(-c5cnc(N6CCN(C(=O)CN7CCC(c8ccc(N[C@H]9CCC(=O)NC9=O)cc8F)CC7)CC6)nc5)c(=O)c4c3)c2C#N)C1` [Example 117, N-[2-cyano-3-[3-[2-[4-[2-[4-[4-[[(3S)-2,6-dioxopiperidin-3-yl]amino]-2-fluorophenyl]piperidin-1-yl]acetyl]piperazin-1-yl]pyrimidin-5-yl]-4-oxoquinazolin-6-yl]oxy-4-fluorophenyl]-3-methoxyazetidine-1-sulfonamide]: it took 38.3 nM to reach half-maximal degradation (DC50) and the Emax turned out to be 9.02%.
In the case of `N#Cc1c(NS(=O)(=O)C2CCCC2)ccc(F)c1Oc1ccc2ncn(CCC3CCN(C(=O)CN4CCC(c5ccc(NC6CCC(=O)NC6=O)cc5)CC4)CC3)c(=O)c2c1` (stereo not shown) [Example A3, N-[2-cyano-3-[3-[2-[1-[2-[4-[4-[(2,6-dioxo-3-piperidyl)amino]phenyl]-1-piperidyl]acetyl]-4-piperidyl]ethyl]-4-oxo-quinazolin-6-yl]oxy-4-fluoro-phenyl]cyclopentanesulfonamide 2,2,2-trifluoroacetic acid salt], the DC50 is 242 nM and the Emax turned out to be 24%.
On the same counts, the results for `CCN(C)S(=O)(=O)Nc1ccc(F)c(Oc2ccc3ncn(C4CCC5(CC4)CCN(C(=O)CN4CCC(c6ccc(NC7CCC(=O)NC7=O)cc6F)CC4)CC5)c(=O)c3c2)c1C#N` (stereo not shown) [Example 30, 9-[6-[2-cyano-3-[[ethyl(methyl)sulfamoyl]amino]-6-fluorophenoxy]-4-oxoquinazolin-3-yl]-3-[2-[4-[4-[(2,6-dioxopiperidin-3-yl)amino]-2-fluorophenyl]piperidin-1-yl]acetyl]-3-azaspiro[5.5]undecane] are 16.4 nM and 12.1%.
For `N#Cc1c(NS(=O)(=O)C2CC2)ccc(F)c1Oc1ccc2ncn(-c3cnc(N4CCN(C(=O)CN5CCC(c6ccc(N[C@H]7CCC(=O)NC7=O)cc6F)CC5)CC4)nc3)c(=O)c2c1` [Example 114, N-[2-cyano-3-[3-[2-[4-[2-[4-[4-[[(3S)-2,6-dioxopiperidin-3-yl]amino]-2-fluorophenyl]piperidin-1-yl]acetyl]piperazin-1-yl]pyrimidin-5-yl]-4-oxoquinazolin-6-yl]oxy-4-fluorophenyl]cyclopropanesulfonamide], it took 8.33 nM to reach half-maximal degradation (DC50) and the Emax was 9.6%.
`N#Cc1c(NS(=O)(=O)N2CC[C@@H](F)C2)ccc(F)c1Oc1ccc2ncn([C@H]3COC4(CCN(C(=O)CN5CCC(c6ccc(NC7CCC(=O)NC7=O)cc6F)CC5)CC4)C3)c(=O)c2c1` (stereo partly drawn) [Example 49, (3R)—N-[2-cyano-3-[3-[(3R)-8-[2-[4-[4-[(2,6-dioxopiperidin-3-yl)amino]-2-fluorophenyl]piperidin-1-yl]acetyl]-1-oxa-8-azaspiro[4.5]decan-3-yl]-4-oxoquinazolin-6-yl]oxy-4-fluorophenyl]-3-fluoropyrrolidine-1-sulfonamide]: it took 148 nM to reach half-maximal degradation (DC50) and the Emax was 10.8%.
As to `CCN(C)S(=O)(=O)Nc1ccc(F)c(Oc2ccc3ncc(-n4cc(N5CCCN(C(=O)CN6CCC(c7ccc(NC8CCC(=O)NC8=O)cc7F)CC6)CC5)cn4)nc3c2)c1C#N` (stereo not shown) [Example 215, 7-[2-cyano-3-[[ethyl(methyl)sulfamoyl]amino]-6-fluorophenoxy]-2-[4-[4-[2-[4-[4-[(2,6-dioxopiperidin-3-yl)amino]-2-fluorophenyl]piperidin-1-yl]acetyl]-1,4-diazepan-1-yl]pyrazol-1-yl]quinoxaline], the DC50 is 18.6 nM and the Emax came out at 7.82%.
Regarding `CCN(C)S(=O)(=O)Nc1ccc(F)c(Oc2ccc3ncn(C4CCC5(CC4)CCN(C(=O)CN4CCN(c6cc7c(cc6F)c(N6CCC(=O)NC6=O)nn7C)CC4)CC5)c(=O)c3c2)c1C#N` [Example 163, 9-[6-[2-cyano-3-[[ethyl(methyl)sulfamoyl]amino]-6-fluorophenoxy]-4-oxoquinazolin-3-yl]-3-[2-[4-[3-(2,4-dioxo-1,3-diazinan-1-yl)-5-fluoro-1-methylindazol-6-yl]piperazin-1-yl]acetyl]-3-azaspiro[5.5]undecane], half-maximal degradation (DC50) was put at 27.6 nM and the Emax was found to be 16.2%.
As for `CC(C)S(=O)(=O)Nc1ccc(F)c(Oc2ccc3ncn(-c4cnc(N5CCN(C(=O)CN6CCC(c7ccc(N[C@H]8CCC(=O)NC8=O)cc7F)CC6)CC5)nc4)c(=O)c3c2)c1C#N` [Example 112, N-[2-cyano-3-[3-[2-[4-[2-[4-[4-[[(3S)-2,6-dioxopiperidin-3-yl]amino]-2-fluorophenyl]piperidin-1-yl]acetyl]piperazin-1-yl]pyrimidin-5-yl]-4-oxoquinazolin-6-yl]oxy-4-fluorophenyl]propane-2-sulfonamide], half-maximal degradation (DC50) was put at 6.47 nM and the Emax is 8.79%.
On to `CCN(C)S(=O)(=O)Nc1ccc(F)c(Oc2ccc3ncn([C@@H]4CCC5(CCN(C(=O)CN6CCC(c7ccc(N[C@H]8CCC(=O)NC8=O)cc7F)CC6)CC5)C4)c(=O)c3c2)c1C#N` [Example 45, 6-[2-cyano-3-[[ethyl(methyl)sulfamoyl]amino]-6-fluorophenoxy]-3-[(3R)-8-[2-[4-[4-[[(3S)-2,6-dioxopiperidin-3-yl]amino]-2-fluorophenyl]piperidin-1-yl]acetyl]-8-azaspiro[4.5]decan-3-yl]-4-oxoquinazoline], for which the DC50 was determined as 18.7 nM and the Emax came out at 11.3%.
Regarding `CCN(C)S(=O)(=O)Nc1ccc(F)c(Oc2ccc3ncn(-c4cnn(C5CCN(C(=O)CN6CCC(c7c(F)cc(NC8CCC(=O)NC8=O)cc7F)CC6)CC5)c4)c(=O)c3c2)c1C#N` (stereo not shown) [Example 20, 6-[2-cyano-3-[[ethyl(methyl)sulfamoyl]amino]-6-fluorophenoxy]-3-[1-[1-[2-[4-[4-[(2,6-dioxopiperidin-3-yl)amino]-2,6-difluorophenyl]piperidin-1-yl]acetyl]piperidin-4-yl]pyrazol-4-yl]-4-oxoquinazoline], it took 14.4 nM to reach half-maximal degradation (DC50) and the maximal response (Emax) came out at 17.7%.
On the same counts, the results for `CN(C1CC1)S(=O)(=O)Nc1ccc(F)c(Oc2ccc3ncn([C@H]4COC5(CCN(C(=O)CC6(O)CCN(c7cc8c(cc7F)c(N7CCC(=O)NC7=O)nn8C)CC6)CC5)C4)c(=O)c3c2)c1C#N` [Example 197, (3R)-3-[6-[2-cyano-3-[[cyclopropyl(methyl)sulfamoyl]amino]-6-fluorophenoxy]-4-oxoquinazolin-3-yl]-8-[2-[1-[3-(2,4-dioxo-1,3-diazinan-1-yl)-5-fluoro-1-methylindazol-6-yl]-4-hydroxypiperidin-4-yl]acetyl]-1-oxa-8-azaspiro[4.5]decane] are 25.7 nM and 27.8%.
